This note sets out measurements from ChEMBL document CHEMBL4433257, “Novel conjugates of podophyllotoxin and coumarin: Synthesis, cytotoxicities, cell cycle arrest, binding CT DNA and inhibition of Topo IIβ” (Bioorg Med Chem Lett, 2019).

By IC50 is commonly meant the concentration that gives 50% inhibition. Lower therefore signals greater potency.

Active and inactive are the calls of the source. The calls are words filed in the database; no cut-off is given here. Bounds are passed on as bounds.

The subject of one assay is HepG2. Put plainly: Cytotoxicity against human HepG2 cells incubated for 48 hrs by MTT assay. It is filed as functional, cell-based. As to conditions: HepG2, 48 h. Background: Tetrazolium assays rely on reduction of a dye to a coloured formazan, in cell work by metabolically active cells.
The subject of a further assay is HeLa. The assay can be described thus: Cytotoxicity against human HeLa cells incubated for 48 hrs by MTT assay. Format: functional, cell-based.
Assay [1] has as its system LoVo. Put plainly: Cytotoxicity against human LoVo cells incubated for 48 hrs by MTT assay. It is filed as functional, cell-based.
Another assay has as its system A549. The assay can be described thus: Cytotoxicity against human A549 cells incubated for 48 hrs by MTT assay. As to conditions: A549, 48 h. Format: functional, cell-based.
Assay [2] relates to LoVo. The assay can be described thus: Induction of cell cycle arrest in human LoVo cells assessed as decrease in topo 2beta expression level at 5 uM incubated for 12 hrs by Western blot analysis. Format: functional, cell-based. For orientation: A western blot detects proteins with antibodies after separation by electrophoresis.
In assay [3] the test system is LoVo. The assay can be described thus: Antiproliferative activity against human LoVo cells assessed as abnormal mitotic spindle formation at 20 uM incubated for 6 hrs by immunofluorescence microscopy assay. Format: functional, cell-based.
Assay [4] has as its system LoVo. The assay can be described thus: Induction of cell cycle arrest in human LoVo cells assessed as change in cdc2 gene expression level at 1 to 10 uM incubated for 24 hrs by Western blot analysis. Format: functional, cell-based.
Assay [5] deals with LoVo. The assay can be described thus: Antiproliferative activity against human LoVo cells assessed as induction of nuclei damage at 10 to 20 uM incubated for 6 hrs by immunofluorescence microscopy assay. Format: functional, cell-based.
Assay [6] concerns Calf thymus DNA. Put plainly: Binding affinity to calf thymus DNA assessed as reduction in absorbance of DNA at 50 uM using varying DNA level by UV/visible spectrophotometric analysis. As to conditions: Bos taurus. Format: nucleic-acid assay.
Assay [7] concerns LoVo. Put plainly: Induction of cell cycle arrest in human LoVo cells assessed as change in cyclin B1 gene expression level at 1 to 10 uM incubated for 24 hrs by Western blot analysis. Format: functional, cell-based.
For assay [8], the system named is LoVo. The assay can be described thus: Induction of cell cycle arrest in human LoVo cells assessed as increase in P21 gene expression level incubated for 24 hrs by Western blot analysis. It is filed as functional, cell-based.
In assay [9] the test system is LoVo. Put plainly: Antiproliferative activity against human LoVo cells assessed as interference with mitosis at 10 to 20 uM incubated for 6 hrs by immunofluorescence microscopy assay. Format: functional, cell-based.
Assay [10] relates to LoVo. The assay can be described thus: Cell cycle arrest in human LoVo cells assessed as increase in accumulation at G1 phase incubated for 24 hrs by propidium iodide staining based flow cytometry analysis. Format: functional. (A flow cytometer gives signals particle by particle.)
Assay [11] deals with LoVo. The assay can be described thus: Antiproliferative activity against human LoVo cells assessed as meshy microtubule network shrinkage around nucleus incubated for 6 hrs by immunofluorescence microscopy assay. Format: functional, cell-based.
Assay [12] has as its system LoVo. Put plainly: Cell cycle arrest in human LoVo cells assessed as accumulation at G1 phase at 5 uM incubated for 24 hrs by propidium iodide staining based flow cytometry analysis (reference value: 51.9%). Format: functional.
For assay [13], the system named is LoVo. The assay can be described thus: Antiproliferative activity against human LoVo cells assessed as induction of nuclear cleavage at 20 uM incubated for 6 hrs by immunofluorescence microscopy assay. Format: functional, cell-based.
Assay [14] concerns Calf thymus DNA. The assay can be described thus: Binding affinity to calf thymus DNA assessed as reduction in absorbance of DNA at 20 to 40 uM by UV/visible spectrophotometric analysis. Format: nucleic-acid assay. As to conditions: Bos taurus.
Assay [15] relates to LoVo. Put plainly: Cell cycle arrest in human LoVo cells assessed as decrease in G2/M phase cell count incubated for 24 hrs by propidium iodide staining based flow cytometry analysis. It is filed as functional.
For assay [16], the system named is LoVo. Put plainly: Cell cycle arrest in human LoVo cells assessed as accumulation at G1 phase at 10 uM incubated for 24 hrs by propidium iodide staining based flow cytometry analysis (reference value: 51.9%). It is filed as functional.
Assay [17] has as its system LoVo. The assay can be described thus: Antiproliferative activity against human LoVo cells assessed as disruption of microtubule organization at 10 to 20 uM incubated for 6 hrs by immunofluorescence microscopy assay. It is filed as functional, cell-based.
In assay [18] the test system is LoVo. Put plainly: Induction of cell cycle arrest in human LoVo cells assessed as decrease in topo 2alpha expression level at 5 uM incubated for 12 hrs by Western blot analysis. It is filed as functional, cell-based.
Assay [19] has as its system LoVo. Put plainly: Cell cycle arrest in human LoVo cells assessed as accumulation at G1 phase at 5 uM incubated for 72 hrs by propidium iodide staining based flow cytometry analysis relative to control. It is filed as functional.
Assay [20] deals with Calf thymus DNA. Put plainly: Binding affinity to calf thymus DNA assessed as reduction in compound emission intensity at 10 uM using varying DNA level by spectrofluorimetric analysis. As to conditions: Bos taurus. Format: nucleic-acid assay.
The test system of assay [21] is LoVo. Put plainly: Cell cycle arrest in human LoVo cells assessed as accumulation at G1 phase at 5 uM incubated for 48 hrs by propidium iodide staining based flow cytometry analysis relative to control. It is filed as functional.
The test system of assay [22] is LoVo. The assay can be described thus: Induction of cell cycle arrest in human LoVo cells assessed as decrease in cyclin D1 gene expression level incubated for 24 hrs by Western blot analysis. Format: functional, cell-based.
The test system of assay [23] is LoVo. The assay can be described thus: Antiproliferative activity against human LoVo cells assessed as disorganization of microtubule network at 10 uM incubated for 6 hrs by immunofluorescence microscopy assay. It is filed as functional, cell-based.
Assay [24] has as its system LoVo. Put plainly: Induction of cell cycle arrest in human LoVo cells assessed as decrease in cyclin D1 gene expression level at 10 uM incubated for 24 hrs by Western blot analysis. It is filed as functional, cell-based.
Assay [25] deals with LoVo. Put plainly: Induction of cell cycle arrest in human LoVo cells assessed as change in cyclin D1 gene expression level at 10 uM incubated for 24 hrs by Western blot analysis. It is filed as functional, cell-based.
Assay [26] deals with LoVo. Put plainly: Antiproliferative activity against human LoVo cells assessed as nuclear changes at 10 uM incubated for 6 hrs by immunofluorescence microscopy assay. It is filed as functional, cell-based.
The subject of assay [27] is LoVo. The assay can be described thus: Induction of cell cycle arrest in human LoVo cells assessed as change in P21 gene expression level at 10 uM incubated for 24 hrs by Western blot analysis. Format: functional, cell-based.
Assay [28] concerns LoVo. Put plainly: Induction of cell cycle arrest in human LoVo cells assessed as change in cdc2 gene expression level at 10 uM incubated for 24 hrs by Western blot analysis. It is filed as functional, cell-based.

As for `COc1cc([C@@H]2c3cc4c(cc3[C@@H](n3cc(CNc5cc(=O)oc6ccccc56)nn3)[C@H]3COC(=O)[C@H]23)OCO4)cc(OC)c1O`, the IC50 with HepG2 came out at 27.5 µM; in the assay with HeLa it was 27.2 µM; in the assay on LoVo [1] it was 38.6 µM; in the assay with A549, 21.4 µM.
On the same counts, the results for `COc1cc([C@@H]2c3cc4c(cc3[C@@H](n3cc(CNc5cc(=O)oc6cc(Br)ccc56)nn3)[C@H]3COC(=O)[C@H]23)OCO4)cc(OC)c1O` are 13.6 µM, 19.8 µM, 7.3 µM and 13.3 µM.
On to `COc1cc([C@@H]2c3cc4c(cc3[C@@H](n3cc(CNc5cc(=O)oc6ccc(Br)cc56)nn3)[C@H]3COC(=O)[C@H]23)OCO4)cc(OC)c1O`, for which the concentration for half-maximal inhibition (IC50) in the assay with HepG2 amounted to 9.3 µM; in the assay on HeLa it was 15.2 µM; with LoVo [1], 8.7 µM; in the assay on A549 it was 8.6 µM.
For `COc1cc([C@@H]2c3cc4c(cc3[C@@H](n3cc(COc5cc(=O)oc6ccc(Br)cc56)nn3)[C@H]3COC(=O)[C@H]23)OCO4)cc(OC)c1O`, the IC50 amounted to 4 µM with HepG2, 20.1 µM with HeLa, 19.8 µM in the assay on LoVo [1] and 27.7 µM with A549.
On the same counts, the results for `COc1ccc2c(NCc3cn([C@@H]4c5cc6c(cc5[C@@H](c5cc(OC)c(O)c(OC)c5)[C@H]5C(=O)OC[C@@H]54)OCO6)nn3)cc(=O)oc2c1` are 11.1 µM, 48.2 µM, 12.6 µM and 28.1 µM.
For `COc1ccc2oc(=O)cc(OCc3cn([C@@H]4c5cc6c(cc5[C@@H](c5cc(OC)c(O)c(OC)c5)[C@H]5C(=O)OC[C@@H]54)OCO6)nn3)c2c1` the same measures were 8 µM, 18.3 µM, 9.4 µM and 19.6 µM.
Take `COc1ccc2oc(=O)cc(NCc3cn([C@@H]4c5cc6c(cc5[C@@H](c5cc(OC)c(O)c(OC)c5)[C@H]5C(=O)OC[C@@H]54)OCO6)nn3)c2c1`: the IC50 in the assay on HepG2 stood at 9.9 µM; in the assay with HeLa, 9.7 µM; with LoVo [1] it was 4.9 µM; with A549, 17.5 µM. Further, the outcome with LoVo [2], in the assay on LoVo [3], in the assay with LoVo [5], with LoVo [9], in the assay with LoVo [11] and in the assay on LoVo [13] was Active. The result with Calf thymus DNA [14], in the assay with LoVo [17], in the assay on LoVo [18] and in the assay on Calf thymus DNA [20] was Active. The result with LoVo [4], in the assay on Calf thymus DNA [6] and in the assay with LoVo [7] was inactive. Moreover, the Activity entry in the assay with LoVo [8] is “Dose-dependent effect”; with LoVo [10], “Dose-dependent effect”; in the assay with LoVo [12], 62%; in the assay with LoVo [15], “Dose-dependent effect”; with LoVo [16], 79%; with LoVo [19] it was 90%. The Activity with LoVo [21] was 70.1%; with LoVo [22], “Dose-dependent effect”.
Turning to `COc1ccc2c(OCc3cn([C@@H]4c5cc6c(cc5[C@@H](c5cc(OC)c(O)c(OC)c5)[C@H]5C(=O)OC[C@@H]54)OCO6)nn3)cc(=O)oc2c1`, the IC50 was 27.5 µM with HepG2, > 100 µM in the assay on HeLa, > 100 µM in the assay with LoVo [1] and 40.3 µM with A549.
Take `COc1cc([C@@H]2c3cc4c(cc3[C@@H](n3cc(COc5cc(=O)oc6ccccc56)nn3)[C@H]3COC(=O)[C@H]23)OCO4)cc(OC)c1O`: the IC50 is 31.3 µM with HepG2, 32.2 µM with HeLa, 40.8 µM with LoVo [1] and > 100 µM in the assay on A549.
On to `COc1cc([C@@H]2c3cc4c(cc3[C@@H](O[C@@H]3O[C@@H]5CO[C@@H](C)O[C@H]5[C@H](O)[C@H]3O)[C@H]3COC(=O)[C@H]23)OCO4)cc(OC)c1O` [ETOPOSIDE], for which the IC50 in the assay with HepG2 amounted to 10.5 µM; in the assay on LoVo [1], 14.9 µM; in the assay on A549, 25.6 µM. Further, the result in the assay on LoVo [23], in the assay on LoVo [2], in the assay on LoVo [24], in the assay on LoVo [25], with LoVo [27] and in the assay with LoVo [28] was Active. For the same compound, in the assay on LoVo [18], the result was Active. The result with LoVo [26] was inactive. Besides, the Activity came to 29.5% in the assay with LoVo [12] and 2% in the assay on LoVo [19].
As to `COc1cc([C@@H]2c3cc4c(cc3[C@@H](n3cc(CNc5cc(=O)oc6ccc(C)cc56)nn3)[C@H]3COC(=O)[C@H]23)OCO4)cc(OC)c1O`, the IC50 came to 17.2 µM in the assay on HepG2, 38.3 µM in the assay on HeLa, 76 µM in the assay on LoVo [1] and 34.8 µM in the assay on A549.
As to `COc1cc([C@@H]2c3cc4c(cc3[C@@H](n3cc(COc5cc(=O)oc6ccc(C)cc56)nn3)[C@H]3COC(=O)[C@H]23)OCO4)cc(OC)c1O`, the concentration for half-maximal inhibition (IC50) is 40.2 µM in the assay on HepG2, 45.4 µM with HeLa, 33.2 µM in the assay on LoVo [1] and > 100 µM with A549.
On the same counts, the results for `COc1cc([C@@H]2c3cc4c(cc3[C@@H](n3cc(COc5cc(=O)oc6cc(Br)ccc56)nn3)[C@H]3COC(=O)[C@H]23)OCO4)cc(OC)c1O` are 15.6 µM, > 100 µM, 24.2 µM and 23.8 µM.
